{"source": "patent US20250319026A1", "about": "“VITAMIN COMPOSITION FOR ORAL ADMINISTRATION” (priority 2023, published 2025)", "assay": "Concentrations of B vitamins obtainable in solution using polysorbate 40 as a solvent", "assay_type": "physicochemical", "conditions": "polysorbate 40 as a solvent in an amount of at least 1.8 wt. %; water", "description": "One of the major disadvantages and drawbacks of the aforementioned prior art references is the absence of both pyridoxine, thiamine, cyanocobalamin in sufficiently high concentrations to ensure the supply of these vitamins to cover the necessary needs of the body.", "data": [{"substance": "cyanocobalamin", "values": [{"measurement": "concentration obtainable in the solution", "value": "at least 0.1 wt. %"}]}]}
